Assays:
Histamine H2 receptor = Histamine H2 receptor (Homo sapiens, UniProt P25021); assay type: cell membranes, CHO-K1, Membrane; note: in other assays of this panel Not Active means under 50% inhibition at 10 µM
[1] = target: C-C chemokine receptor type 5 (Homo sapiens, UniProt P51681); assay type: cell membranes, Membrane; details: hek293; note: in other assays of this panel Not Active means under 50% inhibition at 10 µM
[2] = DRUGMATRIX: Glutamate, Kainate radioligand binding (ligand: [3H] Kainic acid); assay type: cell membranes, Rattus norvegicus, Wistar, Brain, Membrane; details: Not Active = under 50% inhibition at 10 µM
[3] = DRUGMATRIX: Glutamate, AMPA radioligand binding (ligand: [3H] AMPA); assay type: cell membranes, Rattus norvegicus, Wistar, Cerebral cortex, Membrane; details: Not Active = under 50% inhibition at 10 µM
[4] = target: Mitogen-activated protein kinase 1 (Homo sapiens, UniProt P28482); test: DRUGMATRIX: Protein Serine/Threonine Kinase, ERK2 enzyme inhibition (substrate: Myelin Basic Protein); parameters: species or system Escherichia coli; details: Not Active = under 50% inhibition at 10 µM
Mitogen-activated protein kinase 1, sequence (P28482 whole entry): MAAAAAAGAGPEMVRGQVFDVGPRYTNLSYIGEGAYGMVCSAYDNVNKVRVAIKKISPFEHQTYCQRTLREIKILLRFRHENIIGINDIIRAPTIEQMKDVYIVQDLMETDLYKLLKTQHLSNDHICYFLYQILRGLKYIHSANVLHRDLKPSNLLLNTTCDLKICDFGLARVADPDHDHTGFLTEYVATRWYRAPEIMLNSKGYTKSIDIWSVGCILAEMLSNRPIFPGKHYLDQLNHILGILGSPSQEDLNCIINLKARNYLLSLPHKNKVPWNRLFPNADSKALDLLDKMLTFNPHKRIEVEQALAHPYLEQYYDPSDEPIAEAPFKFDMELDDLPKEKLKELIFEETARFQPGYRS

[5] = DRUGMATRIX: GABAA, Flunitrazepam, Central radioligand binding (ligand: [3H] Flunitrazepam); assay type: cell membranes, Rattus norvegicus, Wistar, Brain, Membrane; details: Not Active = under 50% inhibition at 10 µM
[6] = DRUGMATRIX: Platelet-Derived Growth Factor (PDGF) radioligand binding (ligand: [125I] PDGF); assay type: cell-based; details: nih3t3; Not Active = under 50% inhibition at 10 µM

Histamine H2 receptor, sequence (P25021 whole entry): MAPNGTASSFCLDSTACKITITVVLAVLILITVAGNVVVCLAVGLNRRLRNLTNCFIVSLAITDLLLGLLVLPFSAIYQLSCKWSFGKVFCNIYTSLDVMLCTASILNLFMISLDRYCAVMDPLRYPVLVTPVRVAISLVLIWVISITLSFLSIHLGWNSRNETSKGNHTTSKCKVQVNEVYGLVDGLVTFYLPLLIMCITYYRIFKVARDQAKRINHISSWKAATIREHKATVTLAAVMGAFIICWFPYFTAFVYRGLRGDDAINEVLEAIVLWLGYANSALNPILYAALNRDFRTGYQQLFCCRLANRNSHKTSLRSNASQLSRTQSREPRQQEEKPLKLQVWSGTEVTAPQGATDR
C-C chemokine receptor type 5, sequence (P51681 whole entry): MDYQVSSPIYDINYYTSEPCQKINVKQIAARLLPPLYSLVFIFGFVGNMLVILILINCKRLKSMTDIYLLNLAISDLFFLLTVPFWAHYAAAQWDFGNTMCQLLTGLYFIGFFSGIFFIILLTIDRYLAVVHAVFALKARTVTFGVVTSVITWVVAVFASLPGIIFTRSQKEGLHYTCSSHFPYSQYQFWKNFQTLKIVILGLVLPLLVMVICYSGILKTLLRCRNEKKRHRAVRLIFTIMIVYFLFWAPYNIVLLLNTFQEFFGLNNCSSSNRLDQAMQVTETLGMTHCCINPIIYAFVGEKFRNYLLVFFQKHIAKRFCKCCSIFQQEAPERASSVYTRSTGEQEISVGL

Compound	IC50 (Histamine H2 receptor; cho-k1)	IC50 [1]	IC50 [2]	Ki [2]	IC50 [3]	Ki [3]	IC50 [4]	IC50 [5]	Ki [5]	IC50 [6]	Ki [6]	IC50 (Histamine H2 receptor; read-out: IC50) [µM]	Ki (Histamine H2 receptor; read-out: Ki) [µM]	IC50 ([5]; read-out: IC50) [µM]	Ki ([5]; read-out: Ki) [µM]	Ki (Histamine H2 receptor; cho-k1)	Ki [1]	Ki [4]
CCc1ccc(CCOc2ccc(CC3SC(=O)NC3=O)cc2)nc1 (stereo unspecified) [PIOGLITAZONE]	Not Active	Not Active	Not Active	Not Active	Not Active	Not Active	Not Active	Not Active	Not Active	Not Active	Not Active	–	–	–	–	–	–	–
CCCNC(C)C(=O)Nc1ccccc1C (stereo unspecified) [PRILOCAINE]	Not Active	Not Active	Not Active	Not Active	Not Active	Not Active	Not Active	Not Active	Not Active	Not Active	Not Active	–	–	–	–	–	–	–
CCN(CC)CCNC(=O)c1ccc(N)cc1 [PROCAINAMIDE]	Not Active	Not Active	Not Active	Not Active	Not Active	Not Active	Not Active	Not Active	Not Active	Not Active	Not Active	–	–	–	–	–	–	–
CCN(CC)CCCC(C)Nc1c2ccc(Cl)cc2nc2ccc(OC)cc12 (stereo unspecified) [QUINACRINE]	–	Not Active	Not Active	Not Active	Not Active	Not Active	Not Active	Not Active	Not Active	Not Active	Not Active	3.54	3.48	–	–	–	–	–
C[C@]12C=CC(=O)C=C1CC[C@H]1[C@@H]3C[C@@H](O)[C@](O)(C(=O)CO)[C@@]3(C)C[C@H](O)[C@@]12F [TRIAMCINOLONE]	Not Active	Not Active	Not Active	Not Active	Not Active	Not Active	Not Active	Not Active	Not Active	Not Active	Not Active	–	–	–	–	–	–	–
CC[C@]1(O)C[C@@H]2CN(CCc3c([nH]c4ccccc34)[C@@](C(=O)OC)(c3cc4c(cc3OC)N(C)[C@H]3[C@@](O)(C(N)=O)[C@H](O)[C@]5(CC)C=CCN6CC[C@]43[C@@H]65)C2)C1 [VINDESINE]	Not Active	Not Active	Not Active	Not Active	Not Active	Not Active	Not Active	Not Active	Not Active	Not Active	Not Active	–	–	–	–	–	–	–
CCN(C(C)=O)c1cccc(-c2ccnc3c(C#N)cnn23)c1 [ZALEPLON]	Not Active	Not Active	Not Active	Not Active	Not Active	Not Active	Not Active	–	–	Not Active	Not Active	–	–	0.412	0.336	–	–	–
COBALTOUS CHLORIDE	Not Active	Not Active	Not Active	Not Active	Not Active	Not Active	Not Active	Not Active	Not Active	Not Active	Not Active	–	–	–	–	Not Active	Not Active	Not Active
COLISTIN	Not Active	Not Active	Not Active	Not Active	Not Active	Not Active	Not Active	Not Active	Not Active	Not Active	Not Active	–	–	–	–	Not Active	Not Active	Not Active

From ChEMBL document CHEMBL1909046, “DrugMatrix in vitro pharmacology data”
